In US20180339016A1 (priority 2015, published 2018):
“And” between values parts separate entries of the source, which are not always exact repeats. Equal values may be shown once. Read-outs that look alike come from different tables or passages of the source.

Key:
[1] = tested on: E. coli ATCC 25922; test: Antibiotic interaction assay (Wimley), 2/3 broth microdilution: MIC alone, MIC of combination, FICI; assay type: cell-based; conditions: for MIC when the three compounds were used alone: Example 7; for MIC (μM) against E. coli ATCC, combination of 3 compounds / MIC (μM) against E. coli ATCC, combination of two compounds / concentration killing E. coli in combination KL-L9P/colistin/linezolid: concentration of labelled component
Method: Synergy was evaluated by an antibiotic interaction assay (Wimley, 2015) Using the method of Wimley (BBA, 2015, v. 1848(1), pp. 8-15), synergy between the membrane-activating peptide and an antibiotic was measured by an FICI value (FIG. 17). […] Thus, to accurately examine synergy, a ⅔ dilution method which observes MIC at denser concentration intervals is advantageous over a ½ dilution method in statistical terms. […] In the same manner, the MIC of an antibiotic or repositioning drug (second line) is measured. In the third line, the two compounds are mixed after putting half amount each, and the MIC thereof is measured.
A broth microdilution technique (⅔ dilution) was used together with an MH broth. E. coli treated with an antibiotic and the peptide was incubated in a 37° C. incubator for 18 hours.
(§1) To measure the synergy between the membrane-activating peptides and the repositioning drug, a 10× compound was prepared, and then serially diluted ⅔-fold with distilled water. An MH broth (900 μl) was added to and mixed with the 10× compound (100 μl), and then 200 μL of the mixture was taken and added to a 96-well plate. E. coli cultured for one day was adjusted to 0.5 MCF using MCFarland, and diluted 10-fold, and then 10 μl of the dilution was added to each well of the plate (5×10^5 CFU/mL). After addition of the bacterial cells, plate was incubated at 37° C. for 18 hours, and then the OD value at UV-Vis (600 nm) was measured. Cell viability (%)=(OD600 of sample−OD600 of negative control)/(OD600 of positive control−OD600 of negative control)×100.

[2] = tested on: E. coli ATCC 25922; conditions: for MIC (μM) against E. coli ATCC 25922, Peptide alone: bacterial growth <10% of control
[3] = tested on: E. coli; test: SYTOX Green membrane penetrability by FACS; assay type: cell-based; conditions: FIG. 6
Method: In the second experiment, whether the peptides would have the ability to disrupt both the outer wall and inner wall of bacteria was examined. To this end, the fluorescent dye Sytox Green capable of specifically staining DNA was used, and penetrability into the microbial membrane was evaluated from the average fluorescence intensity of E. coli treated with SYTOX Green. An E. coli suspension (2×10^8 cells/mL) was incubated with the three peptides in the presence of SYTOX Green (2.5 μM) for 10 minutes, respectively. Penetrability was quantified by a (fluorescence activated cell sorter (FACS). The average fluorescence intensity of 1×10^4 gate cells was measured. Melittin (control) is a pore-forming peptide that disrupts the microbial cell membrane.

[4] = tested on: E. coli; test: NPN fluorescence, penetration into outer membrane; assay type: cell-based; conditions: FIG. 5
Method: Penetration into the microbial outer membrane was measured by the fluorescence intensity of NPN-treated E. coli (λex=355 nm, λem=405 nm). An E. coli suspension (8×10^7 cells/mL) was centrifuged at 13000 rpm at 25° C. for 10 minutes, and suspended in 5 mM HEPES buffer (pH 7.2). NPN was added to the E. coli suspension to a final NPN concentration of 5 μM. The fluorescence intensity of the E. coli suspension was measured using the FL-55 fluorometer. The peptide together with 5 μM NPN was added to the E. coli suspension.

[5] = tested on: Staphylococcus aureus (ATCC 29213); test: MIC of peptide against S. aureus; assay type: cell-based; conditions: peptide alone
Method: (§2) The N-terminus of the peptides were acetylated and the C-terminus was amidated. The kinked structure can rapidly reduce the alpha-helical content, thereby greatly reducing the toxicity of the peptide against host cells. In addition, because of the potential to show specificity for the Gram-negative bacterial membrane, Pro-mutants were prepared by site-directed mutagenesis. Using the prepared peptides, their MIC for the Gram-negative bacterium E. coli and the Gram-positive bacterium S. aureus and their hemolytic activity for host cells were examined (Table 1).

[6] = tested on: Escherichia coli (ATCC 25922); conditions: peptide alone; peptide concentration required to inhibit growth by 20% (so in the source)
Method: as §2, §1

[7] = tested on: E. coli NDm-1; test: Confocal microscopy of TAMRA-conjugated peptide; assay type: cell-based; conditions: 2.5 μM peptide, 30 minutes, FIG. 8
Method: E. coli NDm-1 was diluted when it reached OD600=0.5. The microorganism was treated with 2.5 μM of the peptide in a 37° C. incubator for 30 minutes. LK-L12P was used as a positive control.

[8] = KL-L9P + colistin + (S)-ibuprofen
[9] = KL-L9P + colistin + cloxacillin
[10] = KL-L9P + colistin + simvastatin
[11] = Tables 19-23, read-out: MIC (μM) against E. coli ATCC, 1 compound alone

colistin
lowering of MIC in combination KL-L9P/colistin/linezolid versus alone [1]: 16 fold
MIC when the three compounds were used alone [1]: 0.8 µM
MIC (μM) against E. coli ATCC, combination of 3 compounds [1, 8]: 0.08 µM
MIC (μM) against E. coli ATCC, combination of 3 compounds [1, 9]: 0.08 µM
MIC (μM) against E. coli ATCC, combination of 3 compounds ([1]; KL-L9P + colistin + curcumin): 0.08 µM
MIC (μM) against E. coli ATCC, combination of 3 compounds ([1]; KL-L9P + colistin + linezolid): 0.06 µM
MIC (μM) against E. coli ATCC, combination of 3 compounds [1, 10]: 0.06 µM
MIC (μM) against E. coli ATCC, combination of two compounds ([1]; KL-L9P + colistin): 0.17 µM
MIC [1, 11]: 1 µM
MIC (μM) against E. coli ATCC, combination of two compounds ([1]; colistin + (S)-ibuprofen): 0.55 µM
MIC (μM) against E. coli ATCC, combination of two compounds ([1]; colistin + cloxacillin): 0.63 µM
MIC (μM) against E. coli ATCC, combination of two compounds ([1]; colistin + curcumin): 0.30 µM
MIC (μM) against E. coli ATCC, combination of two compounds ([1]; colistin + linezolid): 0.60 µM
MIC (μM) against E. coli ATCC, combination of two compounds ([1]; colistin + simvastatin): 0.25 µM
MIC of combination (μM): KL-L9P ([1]; concentration of KL-L9P in combination with labelled drug): 2.40 µM
concentration killing E. coli in combination KL-L9P/colistin/linezolid [1]: 50 nM
MIC of combination (μM): antibiotic ([1]; concentration of labelled drug in combination with KL-L9P): 0.17 µM
MIC ([1]; drug alone, <20% growth of positive control, read-out: MIC of antibiotic): 1.63 µM
FICI of drug with KL-L9P ([1]; labelled drug + KL-L9P): 0.26
FICIKL-L9P ([1]; labelled drug + KL-L9P): 0.16
FICIantibiotic ([1]; labelled drug + KL-L9P): 0.10
MIC (μM) against E. coli ATCC 25922, Colistin alone ([2]; Table 4): 1.25 µM
SYTOX Green DNA staining: ability to degrade or penetrate the inner wall [3]: easily stained DNA
NPN fluorescence: touching/loosening the outer membrane [4]: had the property of touching the outer membrane and entering the outer membrane

LKKLLKLLKKPLKL [LK-L11P]
MIC [μM] Against S. aureus [5]: >40 µM
Fractional Inhibitory Concentration Index (FICI), Colistin & 1 μM peptide ([2]; Table 4): 0.83, Synergism
MIC (μM) against E. coli ATCC 25922, Peptide alone ([2]; Table 4): 3 µM
MIC [μM] Against E. coli [6]: 5 µM

CC[C@H](C)[C@H](NC(=O)CN)C(=O)NCC(=O)N[C@@H](C)C(=O)N[C@H](C(=O)N[C@@H](CC(C)C)C(=O)N[C@@H](CCCCN)C(=O)N[C@H](C(=O)N[C@@H](CC(C)C)C(=O)N[C@H](C(=O)N[C@H](C(=O)NCC(=O)N[C@@H](CC(C)C)C(=O)N1CCC[C@H]1C(=O)N[C@@H](C)C(=O)N[C@@H](CC(C)C)C(=O)N[C@H](C(=O)N[C@@H](CO)C(=O)N[C@@H](Cc1c[nH]c2ccccc12)C(=O)N[C@H](C(=O)N[C@@H](CCCCN)C(=O)N[C@@H](CCCNC(=N)N)C(=O)N[C@@H](CCCCN)C(=O)N[C@@H](CCCNC(=N)N)C(=O)N[C@@H](CCC(N)=O)C(=O)N[C@@H](CCC(N)=O)C(N)=O)[C@@H](C)CC)[C@@H](C)CC)[C@@H](C)O)[C@@H](C)O)C(C)C)C(C)C [Melittin]
SYTOX Green DNA staining: ability to degrade or penetrate the inner wall [3]: have this ability
NPN fluorescence: touching/loosening the outer membrane [4]: high ability to increase NPN fluorescence

KLLKLLKKPLKLLK [KL-L9P]
MIC [μM] Against S. aureus [5]: >40 µM
lowering of MIC in combination KL-L9P/colistin/linezolid versus alone [1]: 12 fold
MIC when the three compounds were used alone [1]: 13 µM
FICI of peptide with resveratrol ([1]; FIG. 10): 0.2
MIC (μM) against E. coli ATCC, combination of two compounds ([1]; KL-L9P + (S)-ibuprofen): 2.0 µM
MIC (μM) against E. coli ATCC, combination of two compounds ([1]; KL-L9P + cloxacillin): 3.0 µM
MIC (μM) against E. coli ATCC, combination of 3 compounds [1, 8]: 1.1 µM
MIC (μM) against E. coli ATCC, combination of 3 compounds [1, 9]: 1.6 µM
MIC (μM) against E. coli ATCC, combination of 3 compounds ([1]; KL-L9P + colistin + curcumin): 1.1 µM
MIC (μM) against E. coli ATCC, combination of 3 compounds ([1]; KL-L9P + colistin + linezolid): 1.1 µM
MIC (μM) against E. coli ATCC, combination of 3 compounds [1, 10]: 0.79 µM
MIC (μM) against E. coli ATCC, combination of two compounds ([1]; KL-L9P + colistin): 2.4 µM
MIC (μM) against E. coli ATCC, combination of two compounds ([1]; KL-L9P + curcumin): 1.9 µM
MIC (μM) against E. coli ATCC, combination of two compounds ([1]; KL-L9P + linezolid): 2.6 µM
MIC (μM) against E. coli ATCC, combination of two compounds ([1]; KL-L9P + simvastatin): 1.3 µM
MIC [1, 11]: 15 µM
concentration killing E. coli in combination KL-L9P/colistin/linezolid [1]: 1000 nM
FICI of peptide with colistin ([1]; labelled peptide + colistin): 0.26
FICI of peptide with colistin and linezolid ([1]; labelled peptide + colistin + linezolid): 0.28
FICI of peptide with linezolid ([1]; labelled peptide + linezolid): 0.40
FICI of peptide with simvastatin ([1]; labelled peptide + simvastatin): 0.18
MIC of combination (μM): peptide ([1]; peptide concentration in combination with colistin): 2.6 µM
MIC (μM) against E. coli ATCC 25922, Peptide alone ([2]; Table 4): 15 µM
FICI Against E. coli, Colistin & 1/2 MIC peptide ([2]; Table 13, Lys-Ala scanning library): 0.58
FICI Against E. coli, Colistin & 1/2 MIC peptide ([2]; Table 15, Leu-Ala scanning): 0.74
FICI Against E. coli, Colistin & 1/4 MIC peptide ([2]; Table 15, Leu-Ala scanning): 0.55
MIC [μM] Against E. coli [6]: 20 µM and 12 µM
SYTOX Green DNA staining: ability to degrade or penetrate the inner wall [3]: did not stain DNA
NPN fluorescence: touching/loosening the outer membrane [4]: better effect of loosening the outer membrane than colistin
confocal image: membrane leakage / distribution of TAMRA-labeled peptide [7]: distributed around the thin peri-cytoplasmic membrane

LKKLLKLLKKLPKL [LK-L12P]
MIC [μM] Against S. aureus [5]: 10 µM
MIC [μM] Against E. coli [6]: 2.5 µM
confocal image: membrane leakage / distribution of TAMRA-labeled peptide [7]: strongly induced leakage from the inner membrane and the outer membrane

KLPKLLKKLLKLLK [KL-L3P]
MIC [μM] Against S. aureus [5]: 20 µM
MIC [μM] Against E. coli [6]: 10 µM

LKKLPKLLKKLLKL [LK-L5P]
MIC [μM] Against S. aureus [5]: 20 µM
MIC [μM] Against E. coli [6]: 5.0 µM

LKKLLKPLKKPLKL [LK-L7PL11P]
MIC [μM] Against S. aureus [5]: >40 µM
MIC [μM] Against E. coli [6]: 20 µM
